From patent publication US8815933B2 (EnVivo Pharmaceuticals, Inc., priority 2008, dated 2014)

Tests used:
[1] = test system: patients suffering from schizophrenia; assay: P50 sensory gating evoked response in schizophrenia patients; assay type: in vivo, Human
Description: The test described above was used to study the effect of the test compound on cognition in patients suffering from schizophrenia. Prior to testing, the patients were dosed with: 1 mg of the test compound daily, 0.3 mg of the test compound daily or were administered a placebo for 20 days. Subjects were tested as described below. P50 waves were elicited by clicks, 1 msec in duration, grouped in pairs in the classic S1-S2 sequence and presented through earpieces inserted into the auditory canals. Click intensity was adjusted individually to 50 dB above the hearing threshold. The offset-to-onset time from S1 to S2 was fixed at 500 msec. The offset-to-onset time between click pairs was varied from 7-11 sec. […] P50 response amplitude was calculated as the voltage difference between the P50 peak and the preceding negative trough. The P50 gating ratio was then calculated after (Olincy et al., 2006) as the amplitude of the P50 response to the second (test) stimulus divided by the amplitude of the P50 response to the first (conditioning) stimulus. […] The P50 amplitude difference (Fuerst et al., 2007) was also measured. […] Unfortunately, in the case of the P50/[…] gating study, it was necessary to discard several patients and post-treatment assignment time points from the analysis because, in those instances, a P50 waveform was not identifiable and therefore could not be measured. […]

[2] = test system: patients suffering from schizophrenia; assay: MMN and P300 evoked responses (oddball sequence) in schizophrenia patients; assay type: in vivo, Human
Description: The test described above was used to study the effect of the test compound on cognition in patients suffering from schizophrenia. Prior to testing, the patients were dosed with: 1 mg of the test compound daily, 0.3 mg of the test compound daily or were administered a placebo for 20 days. Subjects were tested as described below.
The MMN and P300 components were elicited during the so-called oddball sequence. The stimulus sequence was a series of lower (500 Hz) and higher (1000 Hz) pitched pure tones presented at a rate of 1 tone per 0.6 sec. The tones were 50 msec in duration, 50 dB above hearing level, and randomly interspersed. The higher pitched tone was the oddball event. Across the series of 600 tones, it occurred at a probability of 0.2. The other tone occurred at the complementary probability of 0.8. Patients were instructed to ignore the tones and instead attend to a magazine held in the lap.
During the task, EEG and EOG activity were digitized at a rate of 500 Hz per channel for 50 msec preceding and 500 msec following stimulus onset. Trials contaminated by eyeblinks or eye movements were removed. An off-line program digitally filtered (bandpass=0.1-30 Hz, 12 db roll-off) responses to the rare and frequent events and constructed averaged event related responses for each electrode. At the FCz electrode, the MMN was measured by an automated algorithm that computed the summed amplitude, relative to the prestimulus baseline, over a 100-200 msec time window following the onsets of the rare (oddball) and frequent tones. MMN was then recalculated as the voltage difference between these responses. P300 amplitude was measured at the Pz electrode site as the peak amplitude between 250 and 500 msec following stimulus onset.
MMN and P300 amplitude reflect activation of multiple precortical and cortical pathways sensitive to stimulus novelty, short term memory, and attention. MMN was calculated as the voltage difference over 100-200 msec post-stimulus onset between the responses to the rare and frequent stimuli. […] P300 is not entirely independent of MMN. P300 was calculated as the peak amplitude relative to the average voltage of the waveform during the 50 msec prestimulus period. A more positive P300 response is indicative of improved cognitive function. P300 is maximal in amplitude when the eliciting stimulus is both rare and task relevant (i.e., attended). In the present study, the rare stimulus was not task relevant. In fact, the patient was instructed to perform no task and to ignore the stimuli. In the present study, therefore, P300 amplitude is very small in comparison to amplitudes recorded under active task conditions. The present P300 component is more similar to the small, frontally-generated P300a described by Knight and colleagues than the large, parietally-generated P300b described in most studies of attentional dysfunction in schizophrenia.
In the analysis of P50 and N100 the baseline value was the covariate and all values obtained during the treatment period were averaged together. Data loss from unidentifiable MMN and P300 components was minimal. These analyses were conducted upon data obtained from n=4 patients treated with placebo, n=7 patients treated with 0.3 mg of the test compound, and n=8 patients treated with 1.0 mg of the test compound.

[3] = maximum plasma concentration in human SAD/MAD clinical trials; assay type: in vivo; conditions: for Cmax: plasma, oral
Description: Multiple ascending dose (MAD) human clinical trials were conducted.
These values are 35-2000 times lower than would have anticipated if efficacy was to be achieved when the free plasma concentration reached the Ki or the ECref concentrations. […] These values are 9.4-667 times lower than expected.

normal subjects [4] = assay: Digit Symbol Substitution Test (DSST) in SAD study; assay type: in vivo, Human; conditions: daily dose as low as 1 mg
Description: The impact of the test compound on cognition in normal subjects was assessed as described below. In these studies, subjects were treated with the test compound dissolved in cranberry juice.
The impact of the test compound on cognition in normal subjects was assessed in a SAD (Single Ascending Dose) study with the Digit Symbol Substitution Test (DSST). […] The positive effects of the test compound in the DSST indicate a beneficial effect on working memory and executive function.

normal subjects [5] = assay: CogState battery in MAD studies; assay type: in vivo, Human
Description: The impact of the test compound on cognition in normal subjects was assessed as described below. In these studies, subjects were treated with the test compound dissolved in cranberry juice. In the MAD (Multiple Ascending Dose) studies cognition was assessed using tests from the CogState battery (cogstate.com). […] The CogState battery is a proprietary computerized cognitive battery of tests measure various cognitive domains including: attention, identification capability, working memory, visual memory, and executive function. […] The magnitude of the effects were, in many cases, significant with effect sizes being >0.4 (a threshold effect size which is commonly accepted as having clinical significance).

[6] = maximum plasma concentration in human SAD/MAD clinical trials; assay type: in vivo; conditions: SAD, Day 1, 3.5 mg
half-life in rat = conditions: in vivo, iv, 1 mg/kg
[7] = free fraction of drug in dog plasma
Description: (§1) The free drug concentration in plasma ([free drug]plasma) is determined by measuring the total drug concentration in the plasma ([total drug]plasma) and the free fraction of the drug, i.e., the fraction of the drug that is not bound to plasma protein (fuplasma):[free drug]plasma=[total drug]plasmaX fuplasma. The total plasma drug concentration and the fraction that binds to plasma protein can both be measured using techniques known to those of skill in the art.

[8] = free fraction of drug in rat plasma
Description: as §1

[9] = free fraction of drug in human plasma
Description: as §1

half-life in dog = conditions: in vivo, iv
[10] = half-life in humans (clinical trials); assay type: in vivo, Human; conditions: for half-life: plasma, 1 mg
Excerpt: The unexpectedly long half-life in humans has several advantages. It allows for once a day dosing. The drug will also have a very small dynamic plasma range over the course of a day (about 15-20%). Thus, if a patient misses a daily dose, the plasma level and the consequent brain level will not be altered by a great degree. This means that the beneficial effects of the drug will be less dependent upon careful adherence to a specific dosing scheme. Third, long half-life and slow elimination also mean that the final dose will be lower than expected. This readily observed by looking at the Cmax values on Day 1 versus Day 21. The Cmax values on Day 21 are about 3.6-4.2 times higher than the Day 1 values. This ratio will translate into a dose that is 3.6-4.2 times lower than would normally be expected due to this favorable accumulation.

For Cl.O=C(N[C@H]1CN2CCC1CC2)c1cc2cccc(Cl)c2s1, the “P50 amplitude difference (C-T), baseline-adjusted” value ([1]; 1.0 mg daily for 20 days vs placebo, FIG. 1B, F=3.97, P=0.07) was “normalization at the high dose”, the “effects on the P50 component of the evoked response” value ([1]; limited to 1.0 mg dose, p=0.1) was “technically not significant” and the “MMN component vs placebo” value ([2]; 0.3 mg daily for 20 days) was “significantly (p<0.05) larger”. For the same molecule, the “P300 component vs placebo” value ([2]; 0.3 mg daily for 20 days) was “significantly (p<0.05) larger”, the “MMN component vs placebo” value ([2]; 1.0 mg daily for 20 days) was “significantly (p<0.05) larger” and the “P300 component vs placebo” value ([2]; 1.0 mg daily for 20 days) was “significantly (p<0.05) larger”. The MMN amplitude ([2]; 0.3 and 1.0 mg daily, dose-related, F=4.96, P=0.02, FIG. 3A) was “increased”, the P300 amplitude ([2]; 0.3 and 1.0 mg daily, dose-related, F=6.88, P=0.008, FIG. 3B) was “increased” and the “maximum free plasma concentration” value ([3]; 0.3 mg dose, human) was 0.073 to 0.283 nM. The free plasma concentration ([3]; 1.0 mg doses, human) was 0.237 to 1.06 nM, the Cmax free ([3]; MAD1, Day 1, 1 mg) was 0.252 nM and the Cmax total ([3]; MAD1, Day 1, 1 mg) was 1.96 nM. For the same molecule, the Cmax free ([3]; MAD1, Day 7, 1 mg) was 0.853 nM, the Cmax total ([3]; MAD1, Day 7, 1 mg) was 6.61 nM and the Cmax free ([3]; MAD1, Day 14, 1 mg) was 1.06 nM. It also gave a Cmax total ([3]; MAD1, Day 14, 1 mg) of 8.23 nM, a Cmax free ([3]; MAD2, Day 1, 0.1 mg) of 0.022 nM and a Cmax total ([3]; MAD2, Day 1, 0.1 mg) of 0.172 nM. The Cmax free ([3]; MAD2, Day 1, 1 mg) was 0.251 nM, the Cmax total ([3]; MAD2, Day 1, 1 mg) was 1.943 nM and the Cmax free ([3]; MAD2, Day 21, 0.1 mg) was 0.093 nM. For the same molecule, the Cmax total ([3]; MAD2, Day 21, 0.1 mg) was 0.724 nM, the Cmax free ([3]; MAD2, Day 21, 1 mg) was 0.974 nM and the Cmax total ([3]; MAD2, Day 21, 1 mg) was 7.547 nM. It also gave a Cmax free ([3]; MAD3, Day 1, 0.3 mg) of 0.073 nM, a Cmax total ([3]; MAD3, Day 1, 0.3 mg) of 0.568 nM and a Cmax free ([3]; MAD3, Day 1, 1 mg) of 0.221 nM. It also gave a Cmax total ([3]; MAD3, Day 1, 1 mg) of 1.71 nM, a Cmax free ([3]; MAD3, Day 21, 0.3 mg) of 0.283 nM and a Cmax total ([3]; MAD3, Day 21, 0.3 mg) of 2.195 nM. It also gave a Cmax free ([3]; MAD3, Day 21, 1 mg) of 0.800 nM, a Cmax total ([3]; MAD3, Day 21, 1 mg) of 6.20 nM and a Cmax free ([3]; SAD, Day 1, 1 mg) of 0.237 nM. It also gave a Cmax total ([3]; SAD, Day 1, 1 mg) of 1.84 nM, a Cmax total ([3]; SAD, Day 1, 3.5 mg) of 6.42 nM and a Cmax ([3]; human, 0.1 mg, MAD2, Day 1, 0.1 mg) of 0.055 ng/mL. It also gave a Cmax ([3]; human, 0.1 mg, MAD2, Day 21, 0.1 mg) of 0.232 ng/mL, a Cmax ([3]; human, 0.3 mg, MAD3, Day 1, 0.3 mg) of 0.182 ng/mL and a Cmax ([3]; human, 0.3 mg, MAD3, Day 21, 0.3 mg) of 0.704 ng/mL. It also gave a Cmax ([3]; human, 1 mg, MAD1, Day 1, 1 mg) of 0.63 ng/mL, a Cmax ([3]; human, 1 mg, MAD1, Day 7, 1 mg) of 2.12 ng/mL and a Cmax ([3]; human, 1 mg, MAD1, Day 14, 1 mg) of 2.64 ng/mL. For the same molecule, the Cmax ([3]; human, 1 mg, MAD2, Day 1, 1 mg) was 0.623 ng/mL, the Cmax ([3]; human, 1 mg, MAD2, Day 21, 1 mg) was 2.42 ng/mL and the Cmax ([3]; human, 1 mg, MAD3, Day 1, 1 mg) was 0.547 ng/mL. For the same molecule, the Cmax ([3]; human, 1 mg, MAD3, Day 21, 1 mg) was 1.99 ng/mL, the Cmax ([3]; human, 1 mg, SAD, Day 1, 1 mg) was 0.59 ng/mL and the Cmax ([3]; human, 3.5 mg, SAD, Day 1, 3.5 mg) was 2.06 ng/mL. The “cognition in Digit Symbol Substitution Test” value (normal subjects [4]) was “pro-cognitive effects”, the effect sizes (normal subjects [5]; CogState, in many cases) was greater than 0.4 and the effect on attention (normal subjects [5]; CogState, normal subjects) was “without having a stimulatory effect on attention”. For the same molecule, the “impact on visual motor skills, learning, executive function, and delayed memory” value (normal subjects [5]; normal subjects, MAD studies, CogState) was “positive impact”, the “cognition in CogState battery” value (normal subjects [5]; normal subjects, MAD studies, daily dose as low as 1 mg) was “pro-cognitive effects” and the Cmax free [6] was 0.828 nM.
Work on O=C(N[C@H]1CN2CCC1CC2)c1cc2cccc(Cl)c2s1 yielded a half-life (half-life in rat) of 2.77 h, a Dog fuplasma [7] of 0.107 and a Rat fuplasma [8] of 0.112. It also gave a Human fuplasma [9] of 0.129, a half-life (half-life in dog; 0.5 mg/kg) of 5.39 h and a half-life (half-life in dog; 3 mg/kg) of 13 h. The “dynamic plasma range over the course of a day” value ([3]; human, once a day dosing) was 15-20%, the half-life ([10]; human, oral, read-out: observed half-life in humans (converted)) was 60 h and the half-life ([10]; po, Human, p.o., read-out: t1/2) was 50.1 to 70.1 h. For the same molecule, the “human half-life suggested by initial allometric scaling” value ([10]; scaled from rat and dog half-life) was “about 8 hours”.
